From patent US20240043860A1, “NOVEL HYDROXYPHENYLPYRUVATE DIOXYGENASE POLYPEPTIDES AND METHODS OF USE THEREOF” (Syngenta Crop Protection AG, priority 2020, published 2024)

How the values were obtained:
[1] = system: transgenic tobacco plants expressing mutant HPPD SEQ ID NO: 14; test: spray test, herbicidal damage scoring; format: in vivo
Method: Avena sativa HPPD or orthologues and variants thereof, for example SEQ IDs 1-63 and 122-127, were expressed in transgenic tobacco. DNA sequences that encode these polypeptides (optimized for tobacco or, optionally, codon optimized according to a target crop such as soybean) were prepared synthetically. Each sequence was designed to include a 5′ fusion with TMV omega 5′ leader sequence such that they are flanked at the 5′ end with XhoI and at the 3′ end with KpnI to facilitate direct cloning into a suitable binary vector for Agrobacterium-based plant transformation.
In one example, the TMV omega 5′ leader and a HPPD encoding gene of interest is excised using XhoI/KpnI and cloned into similarly digested binary vector pBIN 19 (Bevan, Nucl. Acids Res. (1984) behind a double enhanced 35S promoter ahead of a NOS 3′ transcription terminator and then transformed into E. coli DH5 alpha competent cells. DNA recovered from the E. coli is used to transform Agrobacterium tumefaciens LBA4404, and transformed bacteria are selected on media contain rifampicin and kanamycin. Tobacco tissue is subjected to Agrobacterium-mediated transformation using methods well described in the art or as described herein. For example, a master plate of Agrobacterium tumefaciens containing the HPPD expressing the binary vector is used to inoculate 10 ml LB (L broth) containing 100 mg/l Rifampicin plus 50 mg/l Kanamycin using a single bacterial colony. This is incubated overnight at 28° C. shaking at 200 rpm. This entire overnight culture is used to inoculate a 50 ml volume of LB containing the same antibiotics. Again this is cultured overnight at 28° C. shaking at 200 rpm. The Agrobacterium cells are pelleted by centrifuging at 3000 rpm for 15 minutes and then resuspended in MS (Murashige and Skoog) medium containing 30 g/l sucrose, pH 5.9 to an OD […]=0.6. This suspension is dispensed in 25 ml aliquots into petri dishes.
Once rooted, plantlets are transferred from agar and potted into 50% peat, 50% John Innes Soil No. 3 or, for example, MetroMix® 380 soil (Sun Gro Horticulture, Bellevue, WA) with slow-release fertilizer in 3 inch round or 4 inch square pots and left regularly watered to establish for 8-12d in the glass house. Glass house conditions are about 24-27° C. day; 18-21° C. night and approximately a 14h (or longer in UK summer) photoperiod. Humidity is adjusted to ˜65% and light levels used are up to 2000 umol/m^2 at bench level. Once new tissue emerged and plants reach the 2-4 leaf stage, some of the clones from each event are sprayed with an HPPD inhibitor of interest selected from the herbicides listed in reference to Example 1. […] For example Callisto® is mixed in water with 0.2-0.25% X-77 surfactant and sprayed from a boom on a suitable track sprayer moving at 2 mph in a DeVries spray chamber (Hollandale, MN) with the nozzle about 2 inches from the plant tops.
Plants are assessed for damage and scored at, for example, 7 and 14 days after treatment (DAT). About 20-30 TO events are produced for a number of HPPD variant genes.
Plants of events showing the least damage are grown to flowering, then bagged and allowed to self. […] Single copy events amongst the Ti plant lines are identified by their 3:1 segregation ratio (with respect to kanamycin and/or herbicide) and by quantitative RT-PCR. Seed from the thus selected Ti tobacco (var. Samsun) lines are sown in 3 inch diameter pots containing 50% peat and 50% John Innes Soil No. 3. After growth to the 3 leaf stage, plants are sprayed as described above in order to test for herbicide tolerance relative to like-treated non-transgenic tobacco plants, and also in comparison with like-treated Ti plants expressing the base HPPD SEQ IDs 122-125. HPPD expression levels were monitored by Western analysis. […]

[2] = system: HPPD variant AVESA V208 (SEQ ID NO: 14); test: biochemical; format: biochemical, Avena sativa; details: SEQ ID NO: 14 compared to control SEQ ID NO: 122
Method: (§1) 25 ul of the overnight cultures were inoculated into fresh 96-deepwell block containing 1 ml Formedium Autoinduction Media (AIM). The AIM cultures were grown for 3h at 37° C. (900rpm) and then transferred to 20° C. overnight (900rpm) to allow protein expression. The overnight cultures were centrifuged and 500 ul of Cellytic B (Sigma Aldrich) was added to resuspend the cell pellets. The coupled HGO assay (Siehl et al, 2014) is used to generate IC50 values for the HPPD variants of interest.
(§2) E. coli BL21 (DE3) cells were transformed with a pET24a vector containing a C-terminally his-tagged Arabidopsis HGO gene, grown and induced overnight as described for the HPPD variants above. The cell pellet was resuspended in phosphate buffered saline at pH 7.4 containing 10% Glycerol, 1mm Tris[2-carboxyethyl] phosphine-HCl (TCEP) plus 30 mM Imidazole and lysed using lysozyme/benzonase. The extract was clarified by low speed centrifugation and purified in the same buffer down a 1 ml His Gravitrap column. The bound HGO was eluted in 0.25M imidazole and the fractions pooled and beaded into liquid nitrogen. All procedures apart from the centrifugation and beading steps were carried out under a nitrogen atmosphere.
(§3) The coupled HGO assay is carried out by adding 10 ul of HPPD extract to a 96-well plate and then adding 40 ul of reaction buffer (50 mM Bis Tris Propane, pH7.0, 25 mM sodium-L-ascorbate, 400μM mercaptoethanol, 50 μM Fe(II)SO4). The plates are left to incubate for 5 minutes on ice. […] 200 ul of HPP/HGO (197 μM hydroxyphenylpyruvic acid, 16 μl/ml Homogentisic Acid Oxidase in reaction buffer as described above) buffer is then added to the well and the reaction is regularly monitored (e.g. every 30 seconds-5 minutes) for absorbance at 330 nm for a given time period (e.g., for between 15-60 minutes). The data can then be used to calculate the IC50 value for each HPPD variant of interest.

[3] = biological target: HPPD variant AVESA V209 (SEQ ID NO: 17) (Avena sativa, UniProt A0ACD5V6K6, A327R/I340E/L359M/R214G/V218I/V260A); test: biochemical; format: biochemical
Method: as §1, §2, §3

[4] = system: HPPD variant AVESA V209 (SEQ ID NO: 17); test: biochemical; format: biochemical, Avena sativa; details: SEQ ID NO: 17 compared to control SEQ ID NO: 122
Method: as §1, §2, §3

Sequence of HPPD variant AVESA V209 (SEQ ID NO: 17) (Avena sativa, UniProt A0ACD5V6K6, A327R/I340E/L359M/R214G/V218I/V260A) (A0ACD5V6K6 entry or part of it R214G/V218I/V260A/A327R/I340E/L359M): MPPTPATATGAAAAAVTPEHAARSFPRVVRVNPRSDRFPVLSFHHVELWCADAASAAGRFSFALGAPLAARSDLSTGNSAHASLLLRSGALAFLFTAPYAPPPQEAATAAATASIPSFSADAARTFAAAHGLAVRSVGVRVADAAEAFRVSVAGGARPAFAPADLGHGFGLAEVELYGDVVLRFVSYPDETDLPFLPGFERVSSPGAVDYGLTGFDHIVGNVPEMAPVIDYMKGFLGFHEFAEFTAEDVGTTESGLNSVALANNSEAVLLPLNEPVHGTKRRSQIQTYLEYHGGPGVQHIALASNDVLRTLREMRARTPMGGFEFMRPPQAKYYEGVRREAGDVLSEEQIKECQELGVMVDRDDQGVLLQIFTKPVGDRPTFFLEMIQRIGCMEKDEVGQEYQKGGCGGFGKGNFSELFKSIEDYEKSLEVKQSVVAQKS

Row | SMILES | damage ([1]; 200 g/ha, SEQ ID 14 plants compared to plants expressing SEQ IDs 122, 124 or 125) | stunting ([1]; FIG. 4, 300 ai/ha, SEQ ID NO: 14 plants compared to plants expressing the wild-type HPPD (SEQ ID NO: 1)) | chlorosis ([1]; FIG. 4, 300 ai/ha, some multi-copy events expressing SEQ ID NO: 14) | chlorosis (yellowing of leaf tissue) ([1]; FIG. 5, 50 g/ha, SEQ ID NO: 14 plants compared to plants expressing SEQ ID NO: 122 or SEQ ID NO: 17) | tolerance in comparison to SEQ ID NO: 122 ([1]; many lines expressing SEQ ID NO: 14, 100 g/ha (Table 3.1)) | damage ([1]; several lines expressing SEQ ID NO: 14, 100 g/ha (Table 3.1)) | increase of the IC50 value [2] | IC50 [3] | increase of the IC50 value [4]
1 | COc1ccc(-n2nc(C)cc(C(=O)C3C(=O)CCCC3=O)c2=O)cc1OC [Herbicide C, dioxopyritrione] | reduced damage | significantly reduced stunting | Almost no chlorosis | significantly reduced chlorosis | significantly improved tolerance | less than 10% | > 200 fold |  | 
2 | Cn1nnnc1NC(=O)c1ccc(C(F)(F)F)nc1-n1cncn1 [Herbicide D, N-(1-methyltetrazol-5-yl)-2-(1,2,4-triazol-1-yl)-6-(trifluoromethyl)pyridine-3-carboxamide] |  |  |  |  |  |  |  | 106 µM | ~14 fold
